# US20200338084A1, “INHIBITORS OF LOW MOLECULAR WEIGHT PROTEIN TYROSINE PHOSPHATASE (LMPTP) AND USES THEREOF” (Sanford Burnham Prebys Medical Discovery Institute, priority 2018, published 2020)
# Target: T1, human LMPTP-A (Homo sapiens, UniProt P24666)
# T1 sequence (P24666 1-158): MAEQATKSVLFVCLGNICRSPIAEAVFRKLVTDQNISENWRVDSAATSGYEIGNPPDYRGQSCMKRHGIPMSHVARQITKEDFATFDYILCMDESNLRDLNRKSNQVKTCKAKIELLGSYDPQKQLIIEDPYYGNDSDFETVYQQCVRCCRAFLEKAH
# Experiment: Enzyme Assay of Inhibition of LMPTP-A
# Type: biochemical
# Conditions: phosphatase assay, OMFP or pNPP substrate, 50 mM Bis-Tris pH 6.0, 37° C.
# Procedure, shortened: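 Recombinant human LMPTP-A in 50 mM Bis-Tris pH 6.0, 1 mM DTT, 0.01% Triton X-100 at 37° C. Substrate OMFP read continuously by fluorescence (485/525 nm), or pNPP stopped with NaOH and read at 405 nm. IC50 taken from inhibitor concentration versus % activity plots.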
row,Compound,IC50
1,Clc1ccc(Cn2cnc(NCc3ccco3)c3ncnc2-3)cc1 [[3-(4-Chloro-benzyl)-3H-purin-6-yl]-furan-2-ylmethyl-amine],≥ 20 µM
2,Fc1ccc(Cn2cnc(NCc3ccco3)c3ncnc2-3)cc1 [[3-(4-Fluoro-benzyl)-3H-purin-6-yl]-furan-2-ylmethyl-amine],≥ 20 µM
3,"Cc1cccc(Nc2ncn(Cc3c(Cl)cccc3Cl)c3ncnc2-3)c1C [{3-[(2,6-Dichlorophenyl)methyl](3-hydropurin-6-yl)}(2,3-dimethylphenyl)amine]",1 to 20 µM
4,"Cc1cccc(C)c1Nc1ncn(Cc2c(Cl)cccc2Cl)c2ncnc1-2 [{3-[(2,6-Dichlorophenyl)methyl](3-hydropurin-6-yl)}(2,6-dimethylphenyl)amine]",1 to 20 µM
5,"Clc1cccc(Cl)c1Cn1cnc(NCCN2CCCCC2)c2ncnc1-2 [{3-[(2,6-Dichlorophenyl)methyl](3-hydropurin-6-yl)}(2-piperidylethyl)amine]",≥ 20 µM
6,"Clc1cccc(Nc2ncn(Cc3c(Cl)cccc3Cl)c3ncnc2-3)c1 [{3-[(2,6-Dichlorophenyl)methyl](3-hydropurin-6-yl)}(3-chlorophenyl)amine]",1 to 20 µM
7,"Fc1cccc(Nc2ncn(Cc3c(Cl)cccc3Cl)c3ncnc2-3)c1 [{3-[(2,6-Dichlorophenyl)methyl](3-hydropurin-6-yl)}(3-fluorophenyl)amine]",1 to 20 µM
8,"Clc1cccc(Cl)c1Cn1cnc(Nc2ccc(Br)cc2)c2ncnc1-2 [{3-[(2,6-Dichlorophenyl)methyl](3-hydropurin-6-yl)}(4-bromophenyl)amine]",1 to 20 µM
9,"Fc1ccc(Nc2ncn(Cc3c(Cl)cccc3Cl)c3ncnc2-3)cc1 [{3-[(2,6-Dichlorophenyl)methyl](3-hydropurin-6-yl)}(4-fluorophenyl)amine]",1 to 20 µM
10,"CCCc1ccc(Nc2ncn(Cc3c(Cl)cccc3Cl)c3ncnc2-3)cc1 [{3-[(2,6-Dichlorophenyl)methyl](3-hydropurin-6-yl)}(4-propylphenyl)amine]",1 to 20 µM
11,"CC(C)(C)c1ccccc1Nc1ncn(Cc2c(Cl)cccc2Cl)c2ncnc1-2 [{3-[(2,6-Dichlorophenyl)methyl](3-hydropurin-6-yl)}[2-(tert-butyl)phenyl]amine]",≥ 20 µM

# Continued, values first:
row,IC50,Compound
1,1 to 20 µM,"Fc1ccccc1Nc1ncn(Cc2c(Cl)cccc2Cl)c2ncnc1-2 [{3-[(2,6-Dichlorophenyl)methyl](3-hydropurin-6-yl)}(2-fluorophenyl)amine]"
2,1 to 20 µM,"COc1ccccc1Nc1ncn(Cc2c(Cl)cccc2Cl)c2ncnc1-2 [{3-[(2,6-Dichlorophenyl)methyl](3-hydropurin-6-yl)}(2-methoxyphenyl)amine]"
3,1 to 20 µM,"Cc1ccccc1Nc1ncn(Cc2c(Cl)cccc2Cl)c2ncnc1-2 [{3-[(2,6-Dichlorophenyl)methyl](3-hydropurin-6-yl)}(2-methylphenyl)amine]"
4,≥ 20 µM,"Clc1cccc(Cl)c1Cn1cnc(Nc2ccccc2N2CCOCC2)c2ncnc1-2 [{3-[(2,6-Dichlorophenyl)methyl](3-hydropurin-6-yl)}(2-morpholin-4-ylphenyl)amine]"
5,1 to 20 µM,"COc1cccc(Nc2ncn(Cc3c(Cl)cccc3Cl)c3ncnc2-3)c1 [{3-[(2,6-Dichlorophenyl)methyl](3-hydropurin-6-yl)}(3-methoxyphenyl)amine]"
6,1 to 20 µM,"Cc1cccc(Nc2ncn(Cc3c(Cl)cccc3Cl)c3ncnc2-3)c1 [{3-[(2,6-Dichlorophenyl)methyl](3-hydropurin-6-yl)}(3-methylphenyl)amine]"
7,1 to 20 µM,"Cc1ccc(Nc2ncn(Cc3c(Cl)cccc3Cl)c3ncnc2-3)cc1 [{3-[(2,6-Dichlorophenyl)methyl](3-hydropurin-6-yl)}(4-methylphenyl)amine]"
8,1 to 20 µM,"Clc1cccc(Cl)c1Cn1cnc(Nc2ccc(N3CCOCC3)cc2)c2ncnc1-2 [{3-[(2,6-Dichlorophenyl)methyl](3-hydropurin-6-yl)}(4-morpholin-4-ylphenyl)amine]"
9,1 to 20 µM,"O=[N+]([O-])c1ccc(Nc2ncn(Cc3c(Cl)cccc3Cl)c3ncnc2-3)cc1 [{3-[(2,6-Dichlorophenyl)methyl](3-hydropurin-6-yl)}(4-nitrophenyl)amine]"
